Experiments:
Test in all cases: microbe, parasite or virus in culture
Format in all cases: cell-based
[1] = test system: influenza A virus minigenome (PB2, PB1, PA, NP; luciferase reporter) in 293T cells, RNP_Alaska; settings: HEK-293T, 48 h
[2] = test system: influenza A virus minigenome (PB2, PB1, PA, NP; luciferase reporter) in 293T cells, RNP_CAL; settings: HEK-293T, 48 h, read-out: RNP_CAL_EC50
[3] = test system: influenza A virus minigenome (PB2, PB1, PA, NP; luciferase reporter) in 293T cells, RNP_Hubei; settings: HEK-293T, 48 h

| Compound | EC50 [1] | EC50 [2] | EC50 [3] |
| --- | --- | --- | --- |
| O=C1c2c(O)c(=O)cnn2[C@@H]([C@@H](c2ccc(F)cc2)c2cccc(C(F)(F)F)c2)[C@H]2CCCN12 [Example 1, (9aR,10S)-10-((S)-(4-fluorophenyl)(3-(trifluoromethyl)phenyl)methyl)-4-hydroxy-8,9,9a,10-tetrahydro-7H-pyrrolo[1′,2′:4,5]pyrazino[1,2-b]pyridazine-3,5-dione] | < 100 nM | < 100 nM | < 100 nM |
| O=C1c2c(O)c(=O)cnn2[C@@H]([C@@H](c2ccc(F)cc2)c2ccc(C(F)(F)F)cc2)[C@H]2CCCN12 [Example 2, (9aR,10S)-10-((R)-(4-fluorophenyl)(4-(trifluoromethyl)phenyl)methyl)-4-hydroxy-8,9,9a,10-tetrahydro-7H-pyrrolo[1′,2′:4,5]pyrazino[1,2-b]pyridazine-3,5-dione] | 100 to 1000 nM | 100 to 1000 nM | 100 to 1000 nM |
| O=C1c2c(O)c(=O)cnn2[C@@H]([C@H](c2cccc(C(F)(F)F)c2)c2cccc(F)c2F)[C@H]2CCCN12 [Example 3, (9aR,10S)-10-((R)-(2,3-difluorophenyl)(3-(trifluoromethyl)phenyl)methyl)-4-hydroxy-8,9,9a,10-tetrahydro-7H-pyrrolo[1′,2′:4,5]pyrazino[1,2-b]pyridazine-3,5-dione] | < 100 nM | < 100 nM | < 100 nM |
| O=C1c2c(O)c(=O)cnn2[C@@H]([C@@H](c2ccc(F)cc2)c2cccc(OC(F)(F)F)c2)[C@H]2CCCN12 [Example 4, (9aR,10S)-10-((S)-(4-fluorophenyl)(3-(trifluoromethoxy)phenyl)methyl)-4-hydroxy-8,9,9a,10-tetrahydro-7H-pyrrolo[1′,2′:4,5]pyrazino[1,2-b]pyridazine-3,5-dione] | 100 to 1000 nM | < 100 nM | < 100 nM |
| O=C1c2c(O)c(=O)cnn2[C@@H]([C@@H](c2ccc(F)cc2)c2ccc(OC(F)(F)F)cc2)[C@H]2CCCN12 [Example 5, (9aR,10S)-10-((R)-(4-fluorophenyl)(4-(trifluoromethoxy)phenyl)methyl)-4-hydroxy-8,9,9a,10-tetrahydro-7H-pyrrolo[1′,2′:4,5]pyrazino[1,2-b]pyridazine-3,5-dione] | 100 to 1000 nM | 100 to 1000 nM | 100 to 1000 nM |
| COc1c2n(ncc1=O)[C@@H]([C@H](c1ccccc1)c1cccc(F)c1F)[C@H]1CCCN1C2=O [Example 38, (9aR,10S)-10-((R)-(2,3-difluorophenyl)(phenyl)methyl)-4-methoxy-8,9,9a,10-tetrahydro-7H-pyrrolo[1′,2′:4,5]pyrazino[1,2-b]pyridazine-3,5-dione] | ≥ 1000 nM | – | ≥ 1000 nM |
| COC(C)(C)C(=O)OCOc1c2n(ncc1=O)[C@@H]([C@H](c1ccccc1)c1cccc(F)c1F)[C@H]1CCCN1C2=O [Example 41, (((9aR,10S)-10-((R)-(2,3-difluorophenyl)(phenyl)methyl)-3,5-dioxo-3,5,8,9,9a,10-hexahydro-7H-pyrrolo[1′,2′:4,5]pyrazino[1,2-b]pyridazin-4-yl)oxy)methyl 2-methoxy-2-methylpropanoate] | < 100 nM | – | < 100 nM |
| COCCOC(=O)OCOc1c2n(ncc1=O)[C@@H]([C@H](c1ccccc1)c1cccc(F)c1F)[C@H]1CCCN1C2=O [Example 46, (((9aR,10S)-10-((R)-(2,3-difluorophenyl)(phenyl)methyl)-3,5-dioxo-3,5,8,9,9a,10-hexahydro-7H-pyrrolo[1′,2′:4,5]pyrazino[1,2-b]pyridazin-4-yl)oxy)methyl (2-methoxyethyl) carbonate] | ≥ 1000 nM | – | ≥ 1000 nM |
| CCN(C)C(=O)Oc1c2n(ncc1=O)[C@@H]([C@H](c1ccccc1)c1cccc(F)c1F)[C@H]1CCCN1C2=O [Example 47, (9aR,10S)-10-((R)-(2,3-difluorophenyl)(phenyl)methyl)-3,5-dioxo-3,5,8,9,9a,10-hexahydro-7H-pyrrolo[1′,2′:4,5]pyrazino[1,2-b]pyridazin-4-yl ethyl(methyl)carbamate] | ≥ 1000 nM | – | ≥ 1000 nM |
| COC(=O)Oc1c2n(ncc1=O)[C@@H]([C@H](c1ccccc1)c1cccc(F)c1F)[C@H]1CCCN1C2=O [Example 54, (9aR,10S)-10-((R)-(2,3-difluorophenyl)(phenyl)methyl)-3,5-dioxo-3,5,8,9,9a,10-hexahydro-7H-pyrrolo[1′,2′:4,5]pyrazino[1,2-b]pyridazin-4-yl methyl carbonate] | < 100 nM | – | < 100 nM |
| COCCC(=O)OCOc1c2n(ncc1=O)[C@@H]([C@H](c1ccccc1)c1cccc(F)c1F)[C@H]1CCCN1C2=O [Example 64, (((9aR,10S)-10-((R)-(2,3-difluorophenyl)(phenyl)methyl)-3,5-dioxo-3,5,8,9,9a,10-hexahydro-7H-pyrrolo[1′,2′:4,5]pyrazino[1,2-b]pyridazin-4-yl)oxy)methyl 3-methoxypropanoate] | ≥ 1000 nM | – | ≥ 1000 nM |
| O=C(Oc1c2n(ncc1=O)[C@@H]([C@H](c1ccccc1)c1cccc(F)c1F)[C@H]1CCCN1C2=O)N1CCC(N2CCCCC2)CC1 [Example 65, (9aR,10S)-10-((R)-(2,3-difluorophenyl)(phenyl)methyl)-3,5-dioxo-3,5,8,9,9a,10-hexahydro-7H-pyrrolo[1′,2′:4,5]pyrazino[1,2-b]pyridazin-4-yl [1,4′-bipiperidine]-1′-carboxylate] | ≥ 1000 nM | – | ≥ 1000 nM |
| O=C(Oc1c2n(ncc1=O)[C@@H]([C@H](c1ccccc1)c1cccc(F)c1F)[C@H]1CCCN1C2=O)N1CCOCC1 [Example 66, (9aR,10S)-10-((R)-(2,3-difluorophenyl)(phenyl)methyl)-3,5-dioxo-3,5,8,9,9a,10-hexahydro-7H-pyrrolo[1′,2′:4,5]pyrazino[1,2-b]pyridazin-4-yl morpholine-4-carboxylate] | ≥ 1000 nM | – | ≥ 1000 nM |
| COc1c2n(ncc1=O)[C@@H]([C@H](c1ccc(F)cc1)c1cccc(F)c1F)[C@H]1CCCN1C2=O [Example 81, (9aR,10S)-10-((R)-(2,3-difluorophenyl)(4-fluorophenyl)methyl)-4-methoxy-8,9,9a,10-tetrahydro-7H-pyrrolo[1′,2′:4,5]pyrazino[1,2-b]pyridazine-3,5-dione] | ≥ 1000 nM | – | ≥ 1000 nM |
| CN(C)C(=O)Oc1c2n(ncc1=O)[C@@H]([C@H](c1ccc(F)cc1)c1cccc(F)c1F)[C@H]1CCCN1C2=O [Example 87, (9aR,10S)-10-((R)-(2,3-difluorophenyl)(4-fluorophenyl)methyl)-3,5-dioxo-3,5,8,9,9a,10-hexahydro-7H-pyrrolo[1′,2′:4,5]pyrazino[1,2-b]pyridazin-4-yl dimethylcarbamate] | ≥ 1000 nM | – | ≥ 1000 nM |
| CC(C)OC(=O)OCOc1c2n(ncc1=O)[C@@H]([C@H](c1ccc(F)cc1)c1cccc(F)c1F)[C@H]1CCCN1C2=O [Example 89, (((9aR,10S)-10-((R)-(2,3-difluorophenyl)(4-fluorophenyl)methyl)-3,5-dioxo-3,5,8,9,9a,10-hexahydro-7H-pyrrolo[1′,2′:4,5]pyrazino[1,2-b]pyridazin-4-yl)oxy)methyl isopropyl carbonate] | < 100 nM | – | < 100 nM |
| COC(C)(C)C(=O)Oc1c2n(ncc1=O)[C@@H]([C@H](c1ccc(F)cc1)c1cccc(F)c1F)[C@H]1CCCN1C2=O [Example 90, (9aR,10S)-10-((R)-(2,3-difluorophenyl)(4-fluorophenyl)methyl)-3,5-dioxo-3,5,8,9,9a,10-hexahydro-7H-pyrrolo[1′,2′:4,5]pyrazino[1,2-b]pyridazin-4-yl 2-methoxy-2-methylpropanoate] | < 100 nM | – | < 100 nM |
| CC(C)(C)OC(=O)OCOc1c2n(ncc1=O)[C@@H]([C@H](c1ccc(F)cc1)c1cccc(F)c1F)[C@H]1CCCN1C2=O [Example 91, tert-butyl ((((9aR,10S)-10-((R)-(2,3-difluorophenyl)(4-fluorophenyl)methyl)-3,5-dioxo-3,5,8,9,9a,10-hexahydro-7H-pyrrolo[1′,2′:4,5]pyrazino[1,2-b]pyridazin-4-yl)oxy)methyl) carbonate] | < 100 nM | – | < 100 nM |
| CN(C)C(=O)OCOc1c2n(ncc1=O)[C@@H]([C@H](c1cccc(F)c1)c1cccc(F)c1F)[C@H]1CCCN1C2=O [Example 101, (((9aR,10S)-10-((R)-(2,3-difluorophenyl)(3-fluorophenyl)methyl)-3,5-dioxo-3,5,8,9,9a,10-hexahydro-7H-pyrrolo[1′,2′:4,5]pyrazino[1,2-b]pyridazin-4-yl)oxy)methyl dimethylcarbamate] | ≥ 1000 nM | – | 100 to 1000 nM |
| CC(C)OC(=O)Oc1c2n(ncc1=O)[C@@H]([C@H](c1cccc(F)c1)c1cccc(F)c1F)[C@H]1CCCN1C2=O [Example 103, (9aR,10S)-10-((R)-(2,3-difluorophenyl)(3-fluorophenyl)methyl)-3,5-dioxo-3,5,8,9,9a,10-hexahydro-7H-pyrrolo[1′,2′:4,5]pyrazino[1,2-b]pyridazin-4-yl isopropyl carbonate] | < 100 nM | – | < 100 nM |
| CC(C)(C)C(=O)OCOc1c2n(ncc1=O)[C@@H]([C@H](c1cccc(F)c1)c1cccc(F)c1F)[C@H]1CCCN1C2=O [Example 109, (((9aR,10S)-10-((R)-(2,3-difluorophenyl)(3-fluorophenyl)methyl)-3,5-dioxo-3,5,8,9,9a,10-hexahydro-7H-pyrrolo[1′,2′:4,5]pyrazino[1,2-b]pyridazin-4-yl)oxy)methyl pivalate] | < 100 nM | – | < 100 nM |
| CC(C)(C)C(=O)Oc1c2n(ncc1=O)[C@@H]([C@H](c1cccc(F)c1)c1cccc(F)c1F)[C@H]1CCCN1C2=O [Example 111, (9aR,10S)-10-((R)-(2,3-difluorophenyl)(3-fluorophenyl)methyl)-3,5-dioxo-3,5,8,9,9a,10-hexahydro-7H-pyrrolo[1′,2′:4,5]pyrazino[1,2-b]pyridazin-4-yl pivalate] | < 100 nM | – | < 100 nM |
